Measured values as given in ChEMBL document CHEMBL3991601, “The target landscape of clinical kinase drugs” (Science, 2017).
Calls of active or inactive are those of the source.

Legend:
[1] = target: TRAF2 and NCK-interacting protein kinase (Homo sapiens, UniProt Q9UKE5)
[2] = target: T1, Serine/threonine-protein kinase ULK3 (Homo sapiens, UniProt Q6PHR2)
T1 sequence (Q6PHR2 whole entry): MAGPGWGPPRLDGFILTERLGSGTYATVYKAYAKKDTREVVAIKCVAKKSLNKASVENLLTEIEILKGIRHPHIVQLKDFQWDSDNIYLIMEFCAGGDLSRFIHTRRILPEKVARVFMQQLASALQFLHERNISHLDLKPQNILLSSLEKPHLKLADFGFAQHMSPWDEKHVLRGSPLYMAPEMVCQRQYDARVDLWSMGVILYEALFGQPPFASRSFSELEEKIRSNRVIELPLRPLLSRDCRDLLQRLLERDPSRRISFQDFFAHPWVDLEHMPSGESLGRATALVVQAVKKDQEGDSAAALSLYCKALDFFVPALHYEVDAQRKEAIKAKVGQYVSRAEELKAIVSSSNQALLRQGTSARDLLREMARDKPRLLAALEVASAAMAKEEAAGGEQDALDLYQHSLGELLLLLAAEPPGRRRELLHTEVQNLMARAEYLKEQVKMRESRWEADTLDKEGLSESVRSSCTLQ

[3] = target: T2, Glycogen phosphorylase, brain form (Homo sapiens, UniProt P11216)
T2 sequence (P11216 whole entry): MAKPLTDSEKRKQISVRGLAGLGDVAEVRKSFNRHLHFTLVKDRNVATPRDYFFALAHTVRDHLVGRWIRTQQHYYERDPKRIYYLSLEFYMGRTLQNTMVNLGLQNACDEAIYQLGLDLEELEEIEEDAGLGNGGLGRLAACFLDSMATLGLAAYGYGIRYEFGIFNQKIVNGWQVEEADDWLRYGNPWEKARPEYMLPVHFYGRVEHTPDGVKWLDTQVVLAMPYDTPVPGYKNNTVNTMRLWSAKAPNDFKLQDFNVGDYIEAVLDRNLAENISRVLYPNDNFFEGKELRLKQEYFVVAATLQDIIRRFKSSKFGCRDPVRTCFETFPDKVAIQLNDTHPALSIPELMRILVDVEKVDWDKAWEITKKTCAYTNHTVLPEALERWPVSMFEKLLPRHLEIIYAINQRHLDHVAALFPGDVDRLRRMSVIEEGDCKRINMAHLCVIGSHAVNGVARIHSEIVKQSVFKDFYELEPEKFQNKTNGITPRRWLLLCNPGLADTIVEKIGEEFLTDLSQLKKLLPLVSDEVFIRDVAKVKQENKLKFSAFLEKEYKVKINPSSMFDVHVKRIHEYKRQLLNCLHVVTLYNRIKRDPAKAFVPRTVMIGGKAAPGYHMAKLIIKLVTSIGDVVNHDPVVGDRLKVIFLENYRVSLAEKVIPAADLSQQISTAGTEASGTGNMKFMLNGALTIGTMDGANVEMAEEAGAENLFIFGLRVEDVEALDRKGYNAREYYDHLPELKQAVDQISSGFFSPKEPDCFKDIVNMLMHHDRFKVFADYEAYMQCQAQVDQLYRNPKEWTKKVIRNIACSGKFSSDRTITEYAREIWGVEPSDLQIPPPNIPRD

[4] = target: RAC-alpha serine/threonine-protein kinase (Homo sapiens, UniProt P31749)
Sequence of RAC-alpha serine/threonine-protein kinase (P31749 whole entry): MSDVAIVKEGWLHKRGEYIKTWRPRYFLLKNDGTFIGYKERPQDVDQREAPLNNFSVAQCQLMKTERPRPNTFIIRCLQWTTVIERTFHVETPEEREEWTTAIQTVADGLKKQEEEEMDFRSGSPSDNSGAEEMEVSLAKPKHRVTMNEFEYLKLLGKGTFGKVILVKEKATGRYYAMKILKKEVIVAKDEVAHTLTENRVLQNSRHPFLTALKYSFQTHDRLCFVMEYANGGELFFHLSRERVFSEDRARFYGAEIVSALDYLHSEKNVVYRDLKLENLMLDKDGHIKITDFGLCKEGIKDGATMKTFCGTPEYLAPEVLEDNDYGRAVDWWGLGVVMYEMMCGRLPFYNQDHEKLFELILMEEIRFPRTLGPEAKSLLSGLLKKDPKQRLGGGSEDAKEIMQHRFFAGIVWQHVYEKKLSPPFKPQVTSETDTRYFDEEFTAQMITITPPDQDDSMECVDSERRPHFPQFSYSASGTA

[5] = target: Inosine-5'-monophosphate dehydrogenase 2 (Homo sapiens, UniProt P12268)
[6] = target: T3, ATP-dependent RNA helicase DDX42 (Homo sapiens, UniProt Q86XP3)
T3 sequence (Q86XP3 whole entry): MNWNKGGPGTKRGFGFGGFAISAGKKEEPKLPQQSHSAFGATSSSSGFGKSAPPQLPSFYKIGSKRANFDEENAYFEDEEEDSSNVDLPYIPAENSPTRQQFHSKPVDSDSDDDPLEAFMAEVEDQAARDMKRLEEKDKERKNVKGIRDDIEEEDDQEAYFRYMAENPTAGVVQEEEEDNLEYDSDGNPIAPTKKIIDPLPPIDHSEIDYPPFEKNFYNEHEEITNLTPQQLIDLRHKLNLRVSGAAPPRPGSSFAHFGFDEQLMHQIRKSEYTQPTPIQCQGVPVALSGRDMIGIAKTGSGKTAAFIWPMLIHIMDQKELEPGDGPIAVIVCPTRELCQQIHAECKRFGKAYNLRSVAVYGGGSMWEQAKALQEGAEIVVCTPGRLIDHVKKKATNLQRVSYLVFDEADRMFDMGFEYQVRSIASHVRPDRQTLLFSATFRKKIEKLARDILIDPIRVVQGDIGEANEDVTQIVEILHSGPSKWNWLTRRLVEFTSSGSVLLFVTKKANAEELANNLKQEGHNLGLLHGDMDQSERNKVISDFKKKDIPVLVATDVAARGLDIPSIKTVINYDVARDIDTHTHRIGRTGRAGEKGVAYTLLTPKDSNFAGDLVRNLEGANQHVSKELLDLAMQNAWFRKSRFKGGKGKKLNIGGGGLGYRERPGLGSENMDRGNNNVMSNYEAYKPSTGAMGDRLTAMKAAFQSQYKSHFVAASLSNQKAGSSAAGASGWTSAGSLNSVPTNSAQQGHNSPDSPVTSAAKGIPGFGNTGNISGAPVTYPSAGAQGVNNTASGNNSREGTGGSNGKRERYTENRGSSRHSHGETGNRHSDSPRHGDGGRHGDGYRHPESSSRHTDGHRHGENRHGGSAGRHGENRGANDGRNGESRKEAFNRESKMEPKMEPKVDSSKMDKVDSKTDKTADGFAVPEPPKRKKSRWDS

[7] = target: Mitotic checkpoint serine/threonine-protein kinase BUB1 (Homo sapiens, UniProt O43683)
Sequence of Mitotic checkpoint serine/threonine-protein kinase BUB1 (O43683 whole entry): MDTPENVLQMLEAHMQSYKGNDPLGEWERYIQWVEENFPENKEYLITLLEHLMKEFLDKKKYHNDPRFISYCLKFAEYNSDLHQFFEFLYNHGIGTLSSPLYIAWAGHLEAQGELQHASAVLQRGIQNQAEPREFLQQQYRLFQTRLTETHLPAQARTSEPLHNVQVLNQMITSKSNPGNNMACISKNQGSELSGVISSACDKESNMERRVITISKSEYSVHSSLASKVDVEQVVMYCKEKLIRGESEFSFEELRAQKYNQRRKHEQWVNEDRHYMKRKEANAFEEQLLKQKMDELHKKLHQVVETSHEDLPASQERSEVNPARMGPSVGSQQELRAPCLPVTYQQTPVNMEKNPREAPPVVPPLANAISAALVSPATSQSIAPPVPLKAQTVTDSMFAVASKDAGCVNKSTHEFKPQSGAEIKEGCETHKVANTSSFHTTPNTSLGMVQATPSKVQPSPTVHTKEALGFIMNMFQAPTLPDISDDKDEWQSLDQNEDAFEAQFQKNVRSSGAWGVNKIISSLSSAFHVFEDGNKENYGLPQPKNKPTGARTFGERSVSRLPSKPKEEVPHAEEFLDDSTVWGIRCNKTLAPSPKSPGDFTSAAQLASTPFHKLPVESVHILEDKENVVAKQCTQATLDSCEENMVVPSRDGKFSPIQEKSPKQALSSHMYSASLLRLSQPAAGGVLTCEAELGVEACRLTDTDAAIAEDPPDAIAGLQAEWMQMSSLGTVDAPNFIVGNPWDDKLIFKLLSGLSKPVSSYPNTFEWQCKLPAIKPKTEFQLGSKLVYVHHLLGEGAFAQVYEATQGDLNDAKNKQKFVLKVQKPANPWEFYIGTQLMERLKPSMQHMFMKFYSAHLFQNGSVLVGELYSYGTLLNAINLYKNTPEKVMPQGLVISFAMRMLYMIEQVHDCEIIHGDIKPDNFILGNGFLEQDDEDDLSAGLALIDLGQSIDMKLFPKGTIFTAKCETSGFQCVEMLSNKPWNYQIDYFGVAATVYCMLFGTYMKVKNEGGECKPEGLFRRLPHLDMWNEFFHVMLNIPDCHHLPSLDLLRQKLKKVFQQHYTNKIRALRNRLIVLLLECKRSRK

Activin receptor type-1 = target: T4, Activin receptor type-1 (Homo sapiens, UniProt Q04771)
T4 sequence (Q04771 whole entry): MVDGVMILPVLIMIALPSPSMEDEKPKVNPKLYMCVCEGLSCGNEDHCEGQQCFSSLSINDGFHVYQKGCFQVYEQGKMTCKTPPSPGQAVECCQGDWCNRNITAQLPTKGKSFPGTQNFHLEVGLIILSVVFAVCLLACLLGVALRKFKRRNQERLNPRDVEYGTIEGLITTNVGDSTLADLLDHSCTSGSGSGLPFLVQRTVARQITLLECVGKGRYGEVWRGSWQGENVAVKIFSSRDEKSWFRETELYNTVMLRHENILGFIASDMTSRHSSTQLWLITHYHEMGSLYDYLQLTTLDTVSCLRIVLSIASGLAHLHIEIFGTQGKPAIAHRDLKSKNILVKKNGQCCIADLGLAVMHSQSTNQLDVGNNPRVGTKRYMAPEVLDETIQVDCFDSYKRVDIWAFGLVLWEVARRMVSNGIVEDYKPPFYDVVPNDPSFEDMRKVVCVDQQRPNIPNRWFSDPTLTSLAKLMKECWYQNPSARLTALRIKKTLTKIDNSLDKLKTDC

Measured: Kd
Note: in the data inactive means no Kd found up to 30 µM.

Sequence of TRAF2 and NCK-interacting protein kinase (Q9UKE5 whole entry): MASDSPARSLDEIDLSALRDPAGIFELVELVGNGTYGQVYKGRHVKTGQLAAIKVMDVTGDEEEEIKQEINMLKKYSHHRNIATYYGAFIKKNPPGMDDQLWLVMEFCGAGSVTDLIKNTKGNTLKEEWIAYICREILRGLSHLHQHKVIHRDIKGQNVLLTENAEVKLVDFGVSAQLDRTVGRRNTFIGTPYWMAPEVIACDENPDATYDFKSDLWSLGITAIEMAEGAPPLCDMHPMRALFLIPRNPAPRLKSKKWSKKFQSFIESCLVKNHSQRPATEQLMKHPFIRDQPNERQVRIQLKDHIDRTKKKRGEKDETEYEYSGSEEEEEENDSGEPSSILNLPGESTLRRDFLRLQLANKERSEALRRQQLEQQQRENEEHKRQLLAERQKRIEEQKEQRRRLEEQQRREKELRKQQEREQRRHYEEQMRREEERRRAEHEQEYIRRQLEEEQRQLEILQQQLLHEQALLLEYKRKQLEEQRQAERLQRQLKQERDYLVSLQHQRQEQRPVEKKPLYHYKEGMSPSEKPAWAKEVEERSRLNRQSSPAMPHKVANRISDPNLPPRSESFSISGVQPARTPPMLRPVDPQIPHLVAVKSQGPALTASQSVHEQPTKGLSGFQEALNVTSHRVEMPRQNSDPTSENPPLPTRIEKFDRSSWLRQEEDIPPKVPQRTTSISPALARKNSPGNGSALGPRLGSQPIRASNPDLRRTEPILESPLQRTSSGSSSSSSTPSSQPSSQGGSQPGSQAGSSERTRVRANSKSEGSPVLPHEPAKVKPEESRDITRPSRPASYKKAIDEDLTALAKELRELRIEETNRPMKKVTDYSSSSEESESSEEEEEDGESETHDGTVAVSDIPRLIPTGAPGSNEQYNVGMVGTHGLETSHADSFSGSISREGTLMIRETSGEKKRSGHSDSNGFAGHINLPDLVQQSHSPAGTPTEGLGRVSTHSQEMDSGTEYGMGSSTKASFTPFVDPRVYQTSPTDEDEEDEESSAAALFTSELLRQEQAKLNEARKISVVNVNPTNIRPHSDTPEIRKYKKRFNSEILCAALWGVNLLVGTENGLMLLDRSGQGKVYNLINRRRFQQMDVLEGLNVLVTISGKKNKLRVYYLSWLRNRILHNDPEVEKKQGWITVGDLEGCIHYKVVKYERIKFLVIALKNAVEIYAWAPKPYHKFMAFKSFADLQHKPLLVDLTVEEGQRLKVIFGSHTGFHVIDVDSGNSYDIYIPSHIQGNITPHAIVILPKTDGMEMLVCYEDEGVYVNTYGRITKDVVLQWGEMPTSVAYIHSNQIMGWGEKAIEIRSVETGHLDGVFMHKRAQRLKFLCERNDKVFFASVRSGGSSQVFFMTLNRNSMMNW

CCN(CCCOc1ccc2c(Nc3cc(CC(=O)Nc4cccc(F)c4)n[nH]3)ncnc2c1)CCOP(=O)(O)O [BARASERTIB]
inactive: [1] > 30 µM | [2] > 30 µM | [3] > 30 µM | [4] > 30 µM | [5] > 30 µM | [6] > 30 µM

COc1cc2c(Oc3ccc4[nH]c(C)cc4c3F)ncnc2cc1OCCCN1CCCC1 [CEDIRANIB]
inactive: [3] > 30 µM | [5] > 30 µM | [6] > 30 µM | [7] > 30 µM

Cn1cnc2c(F)c(Nc3ccc(Br)cc3Cl)c(C(=O)NOCCO)cc21 [SELUMETINIB]
inactive: [3] > 30 µM | [5] > 30 µM | [6] > 30 µM | [7] > 30 µM

COc1ccc(-c2ccc3ncc4c(c3c2)n(-c2ccc(N3CCNCC3)c(C(F)(F)F)c2)c(=O)n4C)cn1 [BGT-226 FREE BASE]
inactive: Activin receptor type-1 > 30 µM | [2] > 30 µM | [3] > 30 µM | [4] > 30 µM | [5] > 30 µM | [6] > 30 µM | [7] > 30 µM

CNC(=O)c1ccc(Nc2ncc(C(F)(F)F)c(NCc3nccnc3N(C)S(C)(=O)=O)n2)cc1 [DEFACTINIB]
inactive: [1] > 30 µM | Activin receptor type-1 > 30 µM | [2] > 30 µM | [3] > 30 µM | [4] > 30 µM | [6] > 30 µM | [7] > 30 µM

CN(C)C/C=C/C(=O)Nc1cc2c(Nc3ccc(F)c(Cl)c3)ncnc2cc1O[C@H]1CCOC1 [AFATINIB]
inactive: [3] > 30 µM | [5] > 30 µM | [6] > 30 µM | [7] > 30 µM

CCOc1ccn(-c2ccc(F)cc2)c(=O)c1C(=O)Nc1ccc(Oc2ccnc(N)c2Cl)c(F)c1 [BMS-777607]
inactive: [1] > 30 µM | Activin receptor type-1 > 30 µM | [4] > 30 µM | [5] > 30 µM | [6] > 30 µM

CN(c1ncccc1CNc1nc(Nc2ccc3c(c2)CC(=O)N3)ncc1C(F)(F)F)S(C)(=O)=O [PF-00562271]
inactive: [2] > 30 µM | [3] > 30 µM | [5] > 30 µM | [6] > 30 µM | [7] > 30 µM

CC(C)CC(=O)Nc1[nH]nc2c1CN(C(=O)C1CCN(C)CC1)C2(C)C [PHA-793887]
inactive: Activin receptor type-1 > 30 µM | [2] > 30 µM | [3] > 30 µM | [4] > 30 µM | [5] > 30 µM | [6] > 30 µM | [7] > 30 µM

CNC(=O)c1cc(COc2nnc(Nc3ccc(Cl)cc3)c3ccoc23)ccn1 [TELATINIB]
inactive: Activin receptor type-1 > 30 µM | [2] > 30 µM | [3] > 30 µM | [4] > 30 µM | [5] > 30 µM | [6] > 30 µM | [7] > 30 µM

CC1(C)CNc2cc(NC(=O)c3cccnc3NCc3ccncc3)ccc21 [MOTESANIB]
inactive: [3] > 30 µM | [5] > 30 µM | [6] > 30 µM | [7] > 30 µM

C[C@@]1(C(=O)Nc2ccc(F)nc2)CCCN1c1nc(Nc2cc(C3CC3)n[nH]2)c2cccn2n1 [BMS-754807]
inactive: [3] > 30 µM | [5] > 30 µM | [6] > 30 µM

O=S(=O)(c1cccc2cnccc12)N1CCCNCC1 [FASUDIL]
inactive: [1] > 30 µM | Activin receptor type-1 > 30 µM | [2] > 30 µM | [3] > 30 µM | [5] > 30 µM | [6] > 30 µM | [7] > 30 µM

N#CCNC(=O)c1ccc(-c2ccnc(Nc3ccc(N4CCOCC4)cc3)n2)cc1 [MOMELOTINIB]
inactive: Activin receptor type-1 > 30 µM | [3] > 30 µM | [4] > 30 µM | [5] > 30 µM | [6] > 30 µM | [7] > 30 µM

C[C@]1(O)C[C@@H](c2nc(-c3ccc4ccc(-c5ccccc5)nc4c3)c3c(N)nccn32)C1 [LINSITINIB]
inactive: [1] > 30 µM | Activin receptor type-1 > 30 µM | [2] > 30 µM | [3] > 30 µM | [5] > 30 µM | [6] > 30 µM | [7] > 30 µM

Cn1c(=O)n(-c2ccc(C(C)(C)C#N)cc2)c2c3cc(-c4cnc5ccccc5c4)ccc3ncc21 [DACTOLISIB]
inactive: [1] > 30 µM | Activin receptor type-1 > 30 µM | [2] > 30 µM | [3] > 30 µM | [5] > 30 µM | [6] > 30 µM | [7] > 30 µM
